BindingDB's records for patent US10294246 (Merck Patent, 2019)

Biological target: T1, Proteasome subunit beta type-8 (Homo sapiens, UniProt P28062)
T1 sequence (P28062 whole entry): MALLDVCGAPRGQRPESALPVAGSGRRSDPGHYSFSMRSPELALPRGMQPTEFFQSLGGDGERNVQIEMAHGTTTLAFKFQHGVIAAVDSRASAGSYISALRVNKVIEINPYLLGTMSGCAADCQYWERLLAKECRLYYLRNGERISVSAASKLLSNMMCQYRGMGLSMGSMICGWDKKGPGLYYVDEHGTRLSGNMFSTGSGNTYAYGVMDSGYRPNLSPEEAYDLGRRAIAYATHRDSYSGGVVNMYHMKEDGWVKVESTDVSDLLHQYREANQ
Assay: Determination of LMP7 Activity
Description: Measurement of LMP7 inhibition is performed in 384 well format based on fluorescence intensity assay.Purified human immunoproteasome (0.25 nM) and serial diluted compounds in DMSO (range of concentrations from 30 μM to […]) or controls are incubated for 20 minutes at 25° C. in assay buffer containing 50 mM Tris pH 7.4, 0.03% SDS, 1 mM EDTA and 1% DMSO. The reaction is initiated by the addition of the fluorogenic peptide substrate, Suc-LLVY-AMC (Bachem 1-1395), at a concentration of 40 μM. After 60 minutes of incubation at 37° C., fluorescence intensity is measured at λex=350 nm and λem=450 nm with a fluorescence reader (Perkin Elmer Envision reader or equivalent).

SMILES: CO[C@H](C(=O)N[C@@H](Cc1coc2ccccc12)B(O)O)c1ccccc1 [US10294246, Compound No. 33]
- IC50: < 50 nM

SMILES: CC(=O)Nc1ccc(CC(=O)N[C@@H](Cc2coc3ccccc23)B(O)O)cc1 [US10294246, Compound No. 26]
- IC50: < 50 nM

SMILES: Cc1ccc(OCCC(=O)N[C@@H](Cc2coc3ccccc23)B(O)O)cc1 [US10294246, Compound No. 7]
- IC50: < 50 nM

SMILES: CCO[C@@H](C(=O)N[C@@H](Cc1coc2ccccc12)B(O)O)c1ccccc1 [US10294246, Compound No. 70]
- IC50: < 50 nM

SMILES: CC(=O)Nc1cccc(CC(=O)N[C@@H](Cc2coc3ccccc23)B(O)O)c1 [US10294246, Compound No. 32]
- IC50: < 50 nM

SMILES: COc1ccc(C(F)(F)C(=O)N[C@@H](Cc2coc3ccccc23)B(O)O)cc1 [US10294246, Compound No. 51]
- IC50: < 50 nM

SMILES: C[C@H](C(=O)N[C@@H](Cc1coc2ccccc12)B(O)O)c1ccccc1 [US10294246, Compound No. 37]
- IC50: < 50 nM
